These results are taken from BindingDB's records for patent US20240190892 (Merck Sharp & Dohme, 2024).

The target of one test is Plasma kallikrein (Homo sapiens, UniProt P03952). The test is described as follows: Plasma Kallikrein Assay. On the procedure: (§1) The effectiveness of a compound of the present invention as an inhibitor of plasma kallikrein can be determined using a relevant purified serine protease, and an appropriate synthetic substrate. The rate of hydrolysis of the chromogenic or fluorogenic substrate by the relevant serine protease was measured both in the absence and presence of compounds of the present invention. Assays were conducted at rt or at 37° C. […] A decrease in the rate of fluorescence change in the presence of inhibitor is indicative of enzyme inhibition. Such methods are known to one skilled in the art. The results of this assay are expressed as the half-maximal inhibitory concentrations (IC50), or the inhibitory constant, Ki.

Another test addresses Coagulation factor XI (Homo sapiens, UniProt P03951). The test is described as follows: Factor XIa Assay. The protocol: as §1, with “Coagulation factor XIa” for “plasma kallikrein”

Plasma kallikrein, sequence (P03952 20-390 limits assumed): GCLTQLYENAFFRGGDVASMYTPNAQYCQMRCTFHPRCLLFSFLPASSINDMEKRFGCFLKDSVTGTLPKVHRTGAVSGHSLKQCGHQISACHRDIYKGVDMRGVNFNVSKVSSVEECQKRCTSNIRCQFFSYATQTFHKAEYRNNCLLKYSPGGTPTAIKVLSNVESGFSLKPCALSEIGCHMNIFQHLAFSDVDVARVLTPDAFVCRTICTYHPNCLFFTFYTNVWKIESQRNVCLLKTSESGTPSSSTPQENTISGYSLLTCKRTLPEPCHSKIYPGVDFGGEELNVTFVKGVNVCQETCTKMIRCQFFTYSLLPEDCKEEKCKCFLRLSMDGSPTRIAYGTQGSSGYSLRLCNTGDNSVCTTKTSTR
Plasma kallikrein, sequence (P03952 391-638 limits assumed): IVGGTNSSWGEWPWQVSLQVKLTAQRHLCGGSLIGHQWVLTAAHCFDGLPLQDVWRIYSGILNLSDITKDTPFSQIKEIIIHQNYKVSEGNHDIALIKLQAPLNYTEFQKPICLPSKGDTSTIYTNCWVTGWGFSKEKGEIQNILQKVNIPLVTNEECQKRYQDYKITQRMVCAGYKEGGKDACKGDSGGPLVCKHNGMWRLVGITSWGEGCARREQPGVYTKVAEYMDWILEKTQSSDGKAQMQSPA
Coagulation factor XI, sequence (P03951 19-387 limits assumed): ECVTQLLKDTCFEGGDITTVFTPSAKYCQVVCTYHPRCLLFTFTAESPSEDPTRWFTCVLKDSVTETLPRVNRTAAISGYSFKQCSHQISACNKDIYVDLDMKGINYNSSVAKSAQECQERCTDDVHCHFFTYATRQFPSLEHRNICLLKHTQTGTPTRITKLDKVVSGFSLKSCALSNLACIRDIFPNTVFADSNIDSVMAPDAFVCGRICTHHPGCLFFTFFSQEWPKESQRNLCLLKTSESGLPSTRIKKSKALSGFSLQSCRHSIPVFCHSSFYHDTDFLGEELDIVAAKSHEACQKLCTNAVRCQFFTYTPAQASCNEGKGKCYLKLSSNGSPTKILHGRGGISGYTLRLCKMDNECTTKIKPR
Coagulation factor XI, sequence (P03951 388-625 limits assumed): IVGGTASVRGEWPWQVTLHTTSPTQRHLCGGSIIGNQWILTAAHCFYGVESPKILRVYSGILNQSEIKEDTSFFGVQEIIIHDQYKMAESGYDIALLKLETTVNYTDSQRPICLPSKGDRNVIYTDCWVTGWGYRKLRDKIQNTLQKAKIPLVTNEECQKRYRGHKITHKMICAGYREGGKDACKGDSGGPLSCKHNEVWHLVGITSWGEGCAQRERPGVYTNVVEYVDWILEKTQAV

Usually IC50 stands for the concentration that gives 50% inhibition. High values mean a need for much substance, low ones inhibition by little substance. `CC1(O)CN(c2ccc(CNC(=O)c3cncc(N4CC[C@]5(C4)OC(=O)Nc4ccc(Cl)c(F)c45)n3)cn2)C1` [US20240190892, Example 35]: the concentration for half-maximal inhibition (IC50) against Plasma kallikrein was 28.4 nM; at Coagulation factor XI, no less than 10000 nM.
